How the values were obtained:
[1] = target: T1, Organic anion transporter 3 (Rattus norvegicus, UniProt Q9R1U7); assay: (§1) TP_TRANSPORTER: uptake in Xenopus laevis oocytes; type: functional, cell-based; conditions: oocyte
T1 sequence (Q9R1U7 whole entry): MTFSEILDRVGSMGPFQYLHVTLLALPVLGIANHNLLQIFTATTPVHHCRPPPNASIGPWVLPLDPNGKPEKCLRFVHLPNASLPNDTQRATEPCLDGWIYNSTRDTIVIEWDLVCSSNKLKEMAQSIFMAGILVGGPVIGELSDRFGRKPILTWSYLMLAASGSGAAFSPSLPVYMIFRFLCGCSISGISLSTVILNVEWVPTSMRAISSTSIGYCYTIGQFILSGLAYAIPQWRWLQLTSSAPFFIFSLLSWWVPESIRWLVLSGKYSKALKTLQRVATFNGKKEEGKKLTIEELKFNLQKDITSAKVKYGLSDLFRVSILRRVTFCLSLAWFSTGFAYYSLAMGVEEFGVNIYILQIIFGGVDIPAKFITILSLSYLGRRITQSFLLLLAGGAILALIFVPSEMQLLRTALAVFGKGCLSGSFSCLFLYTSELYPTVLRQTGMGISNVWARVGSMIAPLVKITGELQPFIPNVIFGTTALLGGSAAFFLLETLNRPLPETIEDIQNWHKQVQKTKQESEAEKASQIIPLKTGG

[2] = target: T2, Solute carrier family 22 member 6 (Rattus norvegicus, UniProt O35956); assay: as §1; type: functional, cell-based; conditions: oocyte
T2 sequence (O35956 whole entry): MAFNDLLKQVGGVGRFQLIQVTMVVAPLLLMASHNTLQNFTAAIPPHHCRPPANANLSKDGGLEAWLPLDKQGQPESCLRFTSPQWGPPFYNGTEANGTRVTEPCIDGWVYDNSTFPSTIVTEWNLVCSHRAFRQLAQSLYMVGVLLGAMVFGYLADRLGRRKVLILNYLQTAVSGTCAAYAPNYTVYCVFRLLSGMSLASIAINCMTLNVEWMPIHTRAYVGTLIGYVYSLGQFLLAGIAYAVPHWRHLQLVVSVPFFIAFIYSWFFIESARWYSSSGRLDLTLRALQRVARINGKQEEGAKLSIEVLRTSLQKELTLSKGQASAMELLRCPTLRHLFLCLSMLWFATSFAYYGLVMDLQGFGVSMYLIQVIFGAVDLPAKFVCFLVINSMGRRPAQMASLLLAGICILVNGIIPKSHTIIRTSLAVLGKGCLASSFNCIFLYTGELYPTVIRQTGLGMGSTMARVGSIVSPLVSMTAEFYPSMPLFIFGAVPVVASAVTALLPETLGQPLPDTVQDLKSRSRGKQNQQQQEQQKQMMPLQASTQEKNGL

[3] = target: T2, Solute carrier family 22 member 6; assay: TP_TRANSPORTER: inhibition of PAH uptake in Xenopus laevis oocytes; type: functional, cell-based, Oocyte

Row | Activity [1] | Activity [2] | Ki [3] [mM] | Km [2] [µM] | Molecule
1 | is not a substrate [-] | is not a substrate [-] | – | – | MeHg-glutathione
2 | – | – | 2 | – | CC(=O)N[C@@H](CS)C(=O)O [ACETYLCYSTEINE]
3 | is not a substrate [-] | – | – | 31 | MeHg-NAC
4 | is not a substrate [-] | is not a substrate [-] | – | – | MeHg-penicillamine
